The values below come from patent US11667645B2, “Granzyme B directed imaging and therapy” (CytoSite Biopharma Inc., priority 2018, dated 2023).

SMILES strings stand for the structures.

Sequence of Granzyme B (human lymphocytes) (P10144 21-247): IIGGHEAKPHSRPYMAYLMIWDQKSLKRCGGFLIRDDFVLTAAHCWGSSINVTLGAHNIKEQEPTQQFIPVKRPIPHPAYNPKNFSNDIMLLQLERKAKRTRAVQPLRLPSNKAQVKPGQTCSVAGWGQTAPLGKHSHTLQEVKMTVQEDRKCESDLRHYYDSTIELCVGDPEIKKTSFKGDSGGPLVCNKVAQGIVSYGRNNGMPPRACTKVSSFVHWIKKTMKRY

The assay has as its target Granzyme B (human lymphocytes) (Homo sapiens (Human), UniProt P10144). The assay can be described thus: human Granzyme B biochemical assay. The conditions noted are these: Granzyme B (human lymphocytes) 5 nM, substrate Ac-IETD-AFC 200 μM, Cpd incubation with enzyme 30 mins, 22° C., read time 60 mins; read-out: IC50. An excerpt: The compounds of Formula I-VIII described above can be tested using the human Granzyme B biochemical assay provided below.
Materials: • 1. Granzyme B (human lymphocytes) Enzyme: Enzo Lifesciences, Cat #ALX-200-602-0010 • 2. Substrate (Ac-IETD-AFC): Enzo Lifesciences, Cat #ALX-260-110-M010 • 3. Standard inhibitor (Compound 20-Isomer3): Synthesized internally in TCG • 4. Dimethyl sulfoxide (DMSO): Sigma-Aldrich, Cat #41639 • 5. HEPES: Gibco, Cat #15630-080 • 6. Calcium chloride: Sigma-Aldrich, Cat #C-5080 • 7. Distilled water: Gibco, Cat #15230-162 • 8. Bovine serum albumin (BSA): Sigma-Aldrich, Cat #A3059 • 9. Black, clear bottom PDL plate (384 wells): Greiner bio-one, Cat #781946 • 10. Polypropylene plate (384 wells): Corning, Cat #3657 Assay Buffer Composition:
Compound Preparation: • 1. DMSO is added to the respective compound vial to make 10 mM Compound stock solution, which is stored at −20° C. • 2. 10 mM Compound stock solution is thawed and 1 mM DMSO stock solution is prepared by adding 45 μl of DMSO to 5 μl of 10 mM compound stock solution. • 3. 1 mM DMSO stock solution is serially diluted (3.16 fold) by adding 10 μl of 1 mM DMSO stock to 21.6 μl of DMSO and mixed well. 10 μl of the resulting solution is then added to 21.6 μl of DMSO and mixed well. This process is continued to create 11 dilution points for the assay standard inhibitor and 8 dilution points for test compounds in 384 well polypropylene plate. • 4. 2 μl of each dilution are dispensed in assay ready plate. • 5. Each well is then diluted 25 fold by adding 48 μl of assay buffer to 2 μl of compound in assay ready plate to make Compound working stock. Enzyme Preparation: • 1. Supplied Granzyme B (human lymphocytes) enzyme is reconstituted to 1 mg/ml (about 31.25 μM) and 1 μl aliquots are kept in −80° C. • 2. 1 μl aliquot is diluted to 625 nM by adding 49 μl of assay buffer containing 0.1% BSA and gently mixed. • 3. 10 nM enzyme working stock is prepared by adding assay buffer containing 0.1% BSA. Substrate Preparation: • 1. Supplied substrate (Ac-IETD-AFC) is reconstituted by adding DMSO to make 10 mM stock, aliquoted and stored in −80° C. • 2. 4 mM substrate mid stock is prepared by adding DMSO. • 3. Substrate working stock i.e. 800 μM is prepared by adding assay buffer. Assay Protocol: • 1. 10 μl of serially diluted Compound working stock (start dose 40 μM) is added from assay ready plate to assay plate according to the plate map. • 2. Positive control (40 μM of standard inhibitor) and negative control (4% DMSO buffer) are added to the respective wells. • 3. 20 μl of Enzyme working stock is added to assay plate and gently mixed. • 4. The plate is incubated at 22° C. for 30 mins and spun at 130 g for 1 minute. • 5. After incubation, 10 μl of Substrate working stock is added to respective wells and mixed (Assay plate is maintained in dark after substrate addition). • 6. The plate is incubated at 22° C. for 60 mins and spun at 130 g for 1 minute. • 7. Fluorescence read (RFU) (Ex: 400 nm/Em: 505 nm) is taken after 60 mins in EnVision Multimode plate reader. Final Assay Concentration:
Data Analysis: • 1. The RFU read is analyzed to calculate percent inhibition by normalizing with positive and negative controls taken as 100% and 0% effect respectively in Microsoft excel. • 2. Graph is generated by putting the analyzed data in GraphPad prism 5.0 software to get IC50 value for each compound.
Turning to `CCC(C)[C@H](NC(=O)COCCF)C(=O)N[C@H]1CCc2cccc3c2N(C1=O)[C@H](C(=O)NCc1ccoc1)C3` (stereo in doubt) [Compound C108, (2S,5S)-5-{(2S,3R)-2-[2-(2-Fluoro-ethoxy)-acetylamino]-3-methyl-pentanoylamino}-4-oxo-1,2,4,5,6,7-hexahydro-azepino[3,2,1-hi]indole-2-carboxylic acid (furan-3-ylmethyl)-amide], the IC50 was > 5 µM. With `O=C(Cc1csc2ccccc12)NCC(=O)N[C@H]1CCc2cccc3c2N(C1=O)[C@H](C(=O)NCc1c[nH]nn1)C3` [Compound C001, (2S,5S)-5-[2-(2-Benzo[b]thiophen-3-yl-acetylamino)-acetylamino]-4-oxo-1,2,4,5,6,7-hexahydro-azepino[3,2,1-hi]indole-2-carboxylic acid (1H-[1,2,3]triazol-4-ylmethyl)-amide], the IC50 is > 5 µM.

For `C[C@H](NC(=O)Cc1csc2ccccc12)C(=O)N[C@H]1CCc2cccc3c2N(C1=O)[C@H](C(=O)NCc1c[nH]nn1)C3` [Compound C002, (2S,5S)-5-[(S)-2-(2-Benzo[b]thiophen-3-yl-acetylamino)propionylamino]-4-oxo-1,2,4,5,6,7-hexahydro-azepino[3,2,1-hi]indole-2-carboxylic acid (1H-[1,2,3]triazol-4-ylmethyl)amide], the IC50 was 1 to 5 µM. In the case of `O=C(Cc1csc2ccccc12)N[C@@H](Cc1ccccc1)C(=O)N[C@H]1CCc2cccc3c2N(C1=O)[C@H](C(=O)NCc1c[nH]nn1)C3` [Compound C004, (2S,5S)-5-[(S)-2-(2-Benzo[b]thiophen-3-yl-acetylamino)-3-phenyl-propionylamino]-4-oxo-1,2,4,5,6,7-hexahydro-azepino[3,2,1-hi]indole-2-carboxylic acid (1H-[1,2,3]triazol-4-ylmethyl)-amide], the IC50 is > 5 µM. The result for `CC(C)C[C@H](NC(=O)Cc1csc2ccccc12)C(=O)N[C@H]1CCc2cccc3c2N(C1=O)[C@H](C(=O)NCc1c[nH]nn1)C3` [Compound C005, (2S,5S)-5-[(S)-2-(2-Benzo[b]thiophen-3-yl-acetylamino)-4-methyl-pentanoylamino]-4-oxo-1,2,4,5,6,7-hexahydro-azepino[3,2,1-hi]indole-2-carboxylic acid (1H-[1,2,3]triazol-4-ylmethyl)-amide] reads 1 to 5 µM. The result for `O=C(Cc1csc2ccccc12)N[C@@H](CO)C(=O)N[C@H]1CCc2cccc3c2N(C1=O)[C@H](C(=O)NCc1c[nH]nn1)C3` [Compound C007, (2S,5S)-5-[(S)-2-(2-Benzo[b]thiophen-3-yl-acetylamino)-3-hydroxy-propionylamino]-4-oxo-1,2,4,5,6,7-hexahydro-azepino[3,2,1-hi]indole-2-carboxylic acid (1H-[1,2,3]triazol-4-ylmethyl)-amide] reads > 5 µM; that for `O=C(O)CC[C@H](NC(=O)Cc1csc2ccccc12)C(=O)N[C@H]1CCc2cccc3c2N(C1=O)[C@H](C(=O)NCc1c[nH]nn1)C3` [Compound C008, (S)-4-(2-Benzo[b]thiophen-3-yl-acetylamino)-4-{(2S,5S)-4-oxo-2-[(1H-[1,2,3]triazol-4-ylmethyl)-carbamoyl]-1,2,4,5,6,7-hexahydro-azepino[3,2,1-hi]indol-5-ylcarbamoyl}butyric acid], > 5 µM. Consider `O=C(Cc1csc2ccccc12)N[C@H](C(=O)N[C@H]1CCc2cccc3c2N(C1=O)[C@H](C(=O)NCc1c[nH]nn1)C3)c1ccccc1` [Compound C009, (2S,5S)-5-[(S)-2-(2-Benzo[b]thiophen-3-yl-acetylamino)-2-phenyl-acetylamino]-4-oxo-1,2,4,5,6,7-hexahydro-azepino[3,2,1-hi]indole-2-carboxylic acid (1H-[1,2,3]triazol-4-ylmethyl)-amide], for which the IC50 was > 5 µM.

A word on the IC50: it is the concentration that inhibits the measured activity by half.
